Read-outs that look alike come from different tables or passages of the source.
Molecular target: T1, human CRTH2 (Homo sapiens, UniProt Q9Y5Y4)
T1 construct: expressed in transfected cells
T1 sequence (Q9Y5Y4 1-395): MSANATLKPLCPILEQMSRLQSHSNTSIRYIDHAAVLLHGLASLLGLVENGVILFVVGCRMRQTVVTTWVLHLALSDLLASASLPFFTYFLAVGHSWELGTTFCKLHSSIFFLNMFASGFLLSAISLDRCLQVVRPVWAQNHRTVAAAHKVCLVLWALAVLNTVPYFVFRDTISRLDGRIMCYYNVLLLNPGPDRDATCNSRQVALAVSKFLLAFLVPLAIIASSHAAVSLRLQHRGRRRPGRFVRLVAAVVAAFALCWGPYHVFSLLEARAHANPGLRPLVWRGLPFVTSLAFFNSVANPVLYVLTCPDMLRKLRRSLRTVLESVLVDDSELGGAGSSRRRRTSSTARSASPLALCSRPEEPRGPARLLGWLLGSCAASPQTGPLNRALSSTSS
Assay: [35S]GTPγS binding assay (SPA) on membranes from CHO-K1 cells stably expressing human CRTH2, stimulated with 60 nM DHK-PGD2
Assay type: biochemical
Settings: read-out: CRTH2 hGTPγS IC50
Method: [^35S]GTPγS Binding Assay
SPA [^35S]G-TPγS binding was performed on membranes from CHO-K1 cells stably expressing human CRTH2. To a white, clear-bottomed 384-well plate, 4 μg membrane protein was incubated in the binding buffer (20 mM HEPES, pH 7.4, 10 mM MgCl2, 300 mM NaCl, 0.2% BSA) with 60 nM DHK-PGD2, 500 pM [^35S]GTPγS, 10 μM GDP, and 100 μg wheat germ agglutinin-coupled SPA beads (GE Healthcare) with and without increasing concentrations of compounds. The final assay volume was 40 μL and contained 1% DMSO. Samples were incubated for 2 h at ambient temperature. Plates were centrifuged 5 min at 1500 rpm. Plates were read after an additional 4 h using the Trilux 1450 Microbeta (PerkinElmer) with a 30 sec/well reading time.

[1] = membranes of CHO-K1 cells expressing human CRTH2, 60 nM DHK-PGD2, Table 1

| Compound | IC50 (potency class symbols, Table 2) | IC50 [1] |
| --- | --- | --- |
| CN(Cc1ccc(OCC(=O)O)c(-c2cccc(C#N)c2)c1)S(=O)(=O)c1ccc(F)cc1 [Example 5, 2-(2-(3-cyanophenyl)-4-((4-fluoro-N-methylphenylsulfonamido)methyl)phenoxy)acetic acid] | < 100 nM | – |
| N#Cc1cccc(-c2cc(CNS(=O)(=O)c3ccc(F)cc3)ccc2OCC(=O)O)c1 [Example 9, 2-(2-(3-cyanophenyl)-4-((4-fluorophenylsulfonamido)methyl)phenoxy)acetic acid] | < 100 nM | – |
| CNS(=O)(=O)c1cccc(-c2cc(CN(C)S(=O)(=O)c3ccc(F)c(Cl)c3)ccc2OCC(=O)O)c1 [Example 16, 2-(2-(3-N-methylsulfamoylphenyl)-4-((3-chloro-4-fluoro-N-methylphenylsulfonamido)methyl)phenoxy)acetic acid] | < 100 nM | – |
| CC(c1ccc(OCC(=O)O)c(-c2cccc(C(F)(F)F)c2)c1)N(C)S(=O)(=O)c1ccc(F)cc1 (centres unmarked) [Example 22, 2-(2-(3-trifluoromethylphenyl)-4-(1-(4-fluoro-N-methylphenylsulfonamido)ethyl)phenoxy)acetic acid] | 100 to 1000 nM | – |
| CN(Cc1ccc(OCC(=O)O)c(-c2ccc(F)c(S(C)(=O)=O)c2)c1)S(=O)(=O)c1ccc(F)cc1 [Example 28, 2-((4-fluoro-3-(methylsulfonyl)phenyl)-4-((4-fluoro-N-methylphenylsulfonamido)methyl)phenoxy)acetic acid] | < 100 nM | – |
| CN(Cc1ccc(OC(C)(C)C(=O)O)c(-c2cccc(C(F)(F)F)c2)c1)S(=O)(=O)c1ccc(F)cc1 [Example 34, 2-(2-(3-trifluoromethylphenyl)-4-((4-fluoro-N-methylphenylsulfonamido)methyl)phenoxy)-2-methylpropanoic acid] | 1000 to 10000 nM | – |
| C[C@@H](Oc1ccc(CN(C)S(=O)(=O)c2ccc(F)cc2)cc1-c1cccc(C(F)(F)F)c1)C(=O)O [Example 35, (R)-2-(2-(3-trifluoromethylphenyl)-4-((4-fluoro-N-methylphenylsulfonamido)methyl)phenoxy)propanoic acid] | 1000 to 10000 nM | – |
| C[C@H](Oc1ccc(CN(C)S(=O)(=O)c2ccc(F)cc2)cc1-c1cccc(C(F)(F)F)c1)C(=O)O [Example 36, (S)-2-(2-(3-trifluoromethylphenyl)-4-((4-fluoro-N-methylphenylsulfonamido)methyl)phenoxy)propanoic acid] | 100 to 1000 nM | – |
| COc1cc(F)cc(-c2cc(CN(C)S(=O)(=O)c3ccc(F)c(Cl)c3)ccc2OCC(=O)O)c1 [Example 37, 2-(3-fluoro-5-methoxyphenyl)-4-((3-chloro-4-fluoro-N-methylphenylsulfonamido)methyl)phenoxyacetic acid] | < 100 nM | 0.6 nM |
| CN(Cc1ccc(OCC(=O)O)c(-c2cc(F)cc(C#N)c2)c1)S(=O)(=O)c1ccc(Cl)c(Cl)c1 [Example 38, 2-(3-cyano-5-fluorophenyl)-4-((3,4-dichloro-N-methylphenylsulfonamido)methyl)phenoxyacetic acid] | < 100 nM | 0.7 nM |
| CN(Cc1ccc(OCC(=O)O)c(-c2cccc(S(C)(=O)=O)c2)c1)S(=O)(=O)c1ccc(F)c(Cl)c1 [Example 39, 2-(3-methylsulfonylphenyl)-4-((3-chloro-4-fluoro-N-methylphenylsulfonamido)methyl)phenoxyacetic acid] | < 100 nM | – |
| COc1ccc(S(=O)(=O)N(C)Cc2ccc(OCC(=O)O)c(-c3cc(F)cc(C#N)c3)c2)cc1F [Example 41, 2-(3-cyano-5-fluorophenyl)-4-((3-fluoro-4-methoxy-N-methylphenylsulfonamido)methyl)phenoxyacetic acid] | < 100 nM | – |
| CN(Cc1cc(-c2cccc(C#N)c2)c(OCC(=O)O)cc1Cl)S(=O)(=O)c1ccc(F)c(Cl)c1 [Example 42, 2-(3-cyanophenyl)-4-((3-chloro-4-fluoro-N-methylphenylsulfonamido)methyl)-5-chlorophenoxyacetic acid] | < 100 nM | 1.5 nM |
| CN(Cc1cc(-c2cccc(C#N)c2)c(OCC(=O)O)cc1F)S(=O)(=O)c1ccc(F)c(Cl)c1 [Example 43, 2-(3-cyanophenyl)-4-((3-chloro-4-fluoro-N-methylphenylsulfonamido)methyl)-5-fluorophenoxyacetic acid] | < 100 nM | – |
| CN(Cc1ccc(OCC(=O)O)c(-c2cc(F)cc(C#N)c2)c1)S(=O)(=O)c1ccc(F)c(F)c1 [Example 44, 2-(3-cyano-5-fluorophenyl)-4-((3,4-difluoro-N-methylphenylsulfonamido)methyl)phenoxyacetic acid] | < 100 nM | 1.8 nM |
| CN(Cc1ccc(OCC(=O)O)c(-c2cc(F)cc(C#N)c2)c1)S(=O)(=O)c1cccc(Cl)c1 [Example 45, 2-(3-cyano-5-fluorophenyl)-4-((3-chloro-N-methylphenylsulfonamido)methyl)phenoxyacetic acid] | < 100 nM | 2 nM |
| COc1cc(F)cc(-c2cc(CN(C)S(=O)(=O)c3ccc(F)c(F)c3)ccc2OCC(=O)O)c1 [Example 46, 2-(3-fluoro-5-methoxyphenyl)-4-((3,4-difluoro-N-methylphenylsulfonamido)methyl)phenoxyacetic acid] | < 100 nM | 2.1 nM |
| CN(Cc1ccc(OCC(=O)O)c(-c2cccc(S(C)(=O)=O)c2)c1)S(=O)(=O)c1ccc(F)c(F)c1 [Example 47, 2-(3-methylsulfonylphenyl)-4-((3,4-difluoro-N-methylphenylsulfonamido)methyl)phenoxyacetic acid] | < 100 nM | – |
| COc1cc(F)cc(-c2cc(CN(C)S(=O)(=O)c3ccc(OC)c(F)c3)ccc2OCC(=O)O)c1 [Example 48, 2-(3-fluoro-5-methoxyphenyl)-4-((3-fluoro-4-methoxy-N-methylphenylsulfonamido)methyl)phenoxyacetic acid] | < 100 nM | 2.9 nM |
| CN(Cc1cc(-c2cccc(C#N)c2)c(OCC(=O)O)cc1Cl)S(=O)(=O)c1ccc(F)cc1 [Example 49, 2-(3-cyanophenyl)-4-((4-fluoro-N-methylphenylsulfonamido)methyl)-5-chlorophenoxyacetic acid] | < 100 nM | – |
| CNS(=O)(=O)c1cccc(-c2cc(CN(C)S(=O)(=O)c3ccc(F)c(F)c3)ccc2OCC(=O)O)c1 [Example 50, 2-(3-N-methylsulfamoylphenyl)-4-((3,4-difluoro-N-methylphenylsulfonamido)methyl)phenoxyacetic acid] | < 100 nM | – |
| CN(Cc1ccc(OCC(=O)O)c(-c2cc(F)cc(F)c2)c1)S(=O)(=O)c1ccc(Cl)c(Cl)c1 [Example 51, 2-(3,5-difluorophenyl)-4-((3,4-dichloro-N-methylphenylsulfonamido)methyl)phenoxyacetic acid] | < 100 nM | 3.4 nM |
| CN(Cc1ccc(OCC(=O)O)c(-c2cccc(S(N)(=O)=O)c2)c1)S(=O)(=O)c1ccc(F)cc1 [Example 52, 2-(3-aminosulfonylphenyl)-4-((4-fluoro-N-methylphenylsulfonamido)methyl)phenoxyacetic acid] | < 100 nM | – |
| CN(Cc1cc(-c2cccc(C#N)c2)c(OCC(=O)O)cc1Cl)S(=O)(=O)c1cccc(F)c1 [Example 53, 2-(3-cyanophenyl)-4-((3-fluoro-N-methylphenylsulfonamido)methyl)-5-chlorophenoxyacetic acid] | < 100 nM | – |
| CNS(=O)(=O)c1cccc(-c2cc(CN(C)S(=O)(=O)c3ccc(F)cc3)ccc2OCC(=O)O)c1 [Example 54, 2-(3-N-methylsulfamoylphenyl)-4-((4-fluoro-N-methylphenylsulfonamido)methyl)phenoxyacetic acid] | < 100 nM | – |
| CN(Cc1ccc(OCC(=O)O)c(-c2cc(F)cc(C#N)c2)c1)S(=O)(=O)c1ccc(F)c(Cl)c1 [Example 55, 2-(3-cyano-5-fluorophenyl)-4-((3-chloro-4-fluoro-N-methylphenylsulfonamido)methyl)phenoxyacetic acid] | < 100 nM | – |
| CN(Cc1ccc(OCC(=O)O)c(-c2cccc(C#N)c2)c1)S(=O)(=O)c1ccc(Cl)c(Cl)c1 [Example 56, 2-(3-cyanophenyl)-4-((3,4-dichloro-N-methylphenylsulfonamido)methyl)phenoxyacetic acid] | < 100 nM | – |
| CN(Cc1ccc(OCC(=O)O)c(-c2cccc(S(C)(=O)=O)c2)c1)S(=O)(=O)c1cccc(F)c1 [Example 57, 2-(3-methylsulfonylphenyl)-4-((3-fluoro-N-methylphenylsulfonamido)methyl)phenoxyacetic acid] | < 100 nM | – |
| CCS(=O)(=O)c1cccc(-c2cc(CN(C)S(=O)(=O)c3ccc(F)c(F)c3)ccc2OCC(=O)O)c1 [Example 58, 2-(3-ethylsulfonylphenyl)-4-((3,4-difluoro-N-methylphenylsulfonamido)methyl)phenoxyacetic acid] | < 100 nM | – |
| Cc1ccc(S(=O)(=O)N(C)Cc2ccc(OCC(=O)O)c(-c3cccc(S(C)(=O)=O)c3)c2)cc1 [Example 59, 2-(3-methylsulfonylphenyl)-4-((4-methyl-N-methylphenylsulfonamido)methyl)phenoxyacetic acid] | < 100 nM | – |

Source: patent US8822467B2 (Ligand Pharmaceuticals Inc., priority 2009, dated 2014)
